Assay results from PubChem BioAssay (NCI).
Values joined by “and” are separate entries in the source; they are usually repeats but may differ in a detail not shown here. Identical values can stand only once.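 Protocol summary: plate cells (96-well), add compound at 5 concentrations, incubate 48 h, interpolate endpoints linearly. GI50: concentration for 50% inhibition of growth. Definition used: TGI = concentration required for complete inhibition of growth.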

Key:
Assay in all cases: inhibition of tumour cell growth, NCI panel, 48 h
[1] = system: CCRF-CEM leukemia
[2] = system: COLO 205 colon
[3] = system: 786-0 renal
[4] = system: OVCAR-4 ovarian
[5] = system: NCI/ADR-RES ovarian
[6] = system: HOP-92 NSCLC
[7] = system: OVCAR-8 ovarian
[8] = system: SK-MEL-5 melanoma
[9] = system: HCC-2998 colon
[10] = system: BT-549 breast

## COc1ccc(C2=NN(C(=O)c3cc(OC)c(OC)c(OC)c3)C(c3ccc(Cl)cc3)C2)cc1OC (configuration not stated)
[1]
  GI50: 2.34 µM
  TGI: > 100 µM
[2]
  GI50: 2.44 µM
  TGI: > 100 µM
[3]
  GI50: 2.14 µM
  TGI: 27.5 µM
[4]
  GI50: 5.22 µM
  TGI: 49.6 µM
[5]
  GI50: 1.05 µM
[6]
  TGI: 5.41 µM
[7]
  GI50: 4.63 µM
  TGI: > 58.6 µM
[8]
  GI50: 0.549 µM
  TGI: 15.6 µM
[9]
  GI50: 7.61 µM
  TGI: > 100 µM
[10]
  GI50: 2.95 µM
  TGI: 71.6 µM

## O=C([O][Hg][CH2]C1COC([CH2][Hg][O]C(=O)c2ccccc2)CO1)c1ccccc1 (configuration not stated)
[1]
  GI50: 0.958 µM and 1.17 µM
  TGI: 3.64 µM
[2]
  GI50: 1.98 µM and 1.07 µM
  TGI: 4.25 µM and 5.21 µM
[3]
  GI50: 2.88 µM and 1.47 µM
  TGI: 8.5 µM and 2.99 µM
[4]
  GI50: 11.3 µM
  TGI: 25.2 µM
[5]
  GI50: 10.9 µM and 1.74 µM
  TGI: 28.9 µM and 4.76 µM
[6]
  GI50: 1.87 µM and 1.94 µM
  TGI: 4.16 µM and 3.37 µM
[7]
  GI50: 10.7 µM and 1.92 µM
  TGI: 25.4 µM and 4.42 µM
[8]
  GI50: 15.1 µM and 2.85 µM
  TGI: 28.6 µM and 10.7 µM
[9]
  GI50: 17.6 µM and 3.65 µM
  TGI: 32.2 µM and 9.35 µM
[10]
  GI50: 7.71 µM and 1.69 µM
  TGI: 20.4 µM and 3.27 µM

## Cc1noc(C)c1-c1cc(O)cc(C(O)c2ccccc2)c1 (configuration not stated)
[1]
  GI50: 14.8 µM
  TGI: > 100 µM
[2]
  GI50: 5.25 µM
  TGI: > 100 µM
[3]
  GI50: 27.1 µM
  TGI: > 100 µM
[4]
  GI50: 6.35 µM
  TGI: > 100 µM
[5]
  GI50: 6.32 µM
  TGI: > 100 µM
[6]
  GI50: 1.02 µM
  TGI: 72.9 µM
[7]
  GI50: 8.33 µM
  TGI: > 100 µM
[8]
  GI50: 5.95 µM
  TGI: 29.5 µM
[9]
  GI50: 8.55 µM
  TGI: > 100 µM
[10]
  GI50: 28.2 µM
  TGI: > 100 µM

## CN(C)c1ncnc2c1nnn2C1OC(CO)C(O)C1O (configuration not stated)
[1]
  GI50: 0.0662 µM
  TGI: > 100 µM
[2]
  GI50: 0.194 µM
  TGI: 0.769 µM
[3]
  GI50: 0.226 µM
  TGI: > 100 µM
[4]
  GI50: 0.0558 µM
  TGI: > 100 µM
[5]
  GI50: 0.233 µM
  TGI: > 100 µM
[6]
  GI50: 0.186 µM
  TGI: 1.23 µM
[7]
  GI50: 0.0759 µM
  TGI: > 100 µM
[8]
  GI50: 0.737 µM
  TGI: 5.7 µM
[9]
  GI50: 0.325 µM
[10]
  GI50: 1.09 µM
  TGI: > 100 µM

## O=C1C2=Nc3ccccc3C(O)N2c2ccccc21 (configuration not stated)
[1]
  TGI: > 100 µM
[2]
  TGI: > 100 µM
[3]
  TGI: > 100 µM
[4]
  TGI: > 100 µM
[5]
  TGI: > 100 µM
[6]
  TGI: > 100 µM
[7]
  TGI: > 100 µM
[8]
  TGI: 3.76 µM
[9]
  TGI: > 94.3 µM
[10]
  TGI: > 100 µM

## CCOC(=O)c1c2c(n(Cc3ccccc3)c1C)-c1ccccc1C(=O)C2=O
[1]
  GI50: 3.36 µM
  TGI: 13.5 µM
[2]
  GI50: 15.6 µM
  TGI: 30.6 µM
[3]
  GI50: 6.35 µM
  TGI: 19.3 µM
[4]
  GI50: 10.9 µM
  TGI: 25.4 µM
[5]
  GI50: 9.42 µM
  TGI: 27.4 µM
[6]
  GI50: 6.54 µM
  TGI: 21.6 µM
[7]
  GI50: 14.9 µM
  TGI: 43.7 µM
[8]
  GI50: 18 µM
  TGI: 41.2 µM
[9]
  GI50: 6.35 µM
  TGI: 19.6 µM
[10]
  GI50: 15.7 µM
  TGI: 29.7 µM

## CC1CCN(CCCCCOc2ccc3oc4cc(Cl)ccc4c(=O)c3c2)CC1
[1]
  GI50: 5.76 µM
  TGI: 14.2 µM
[2]
  GI50: 6.09 µM
  TGI: 14.1 µM
[3]
  GI50: 6.29 µM
  TGI: 12.7 µM
[4]
  GI50: 6.22 µM
  TGI: 13.6 µM
[5]
  GI50: 8.14 µM
  TGI: 21.8 µM
[6]
  GI50: 6.51 µM
  TGI: 14.8 µM
[7]
  GI50: 7.95 µM
  TGI: 16 µM
[8]
  GI50: 5.36 µM
  TGI: 11.3 µM
[9]
  GI50: 6.25 µM
  TGI: 13.1 µM
[10]
  GI50: 6.54 µM
  TGI: 13.1 µM
